≈ marks a conversion by molar mass, not a printed value.

In the test the test system is Escherichia coli. Kind of test: Antibacterial activity against Escherichia coli K-12 W3110 by microdilution method. The format is functional. The settings on record: K-12 substr. W3110.
For `Cc1cn([C@H]2CN(P(=O)(OC[C@@H]3CN(P(=O)(OC[C@@H]4CN(P(=O)(OC[C@@H]5CN(P(=O)(OC[C@@H]6CN(P(=O)(OC[C@@H]7CN(P(=O)(OC[C@@H]8CN(P(=O)(OC[C@@H]9CN(P(=O)(OC[C@@H]%10CNC[C@H](n%11cnc%12c(=O)[nH]c(N)nc%12%11)O%10)N(C)C)C[C@H](n%10cc(C)c(=O)[nH]c%10=O)O9)N(C)C)C[C@H](n9cnc%10c(=O)[nH]c(N)nc%109)O8)N(C)C)C[C@H](n8cnc9c(N)ncnc98)O7)N(C)C)C[C@H](n7cc(C)c(=O)[nH]c7=O)O6)N(C)C)C[C@H](n6cnc7c(N)ncnc76)O5)N(C)C)C[C@H](n5cnc6c(=O)[nH]c(N)nc65)O4)N(C)C)C[C@H](n4ccc(N)nc4=O)O3)N(C)C)C[C@@H](COP(=O)(N(C)C)N3C[C@@H](COP(=O)(N(C)C)N4C[C@@H](COP(=O)(N(C)C)N5CCN(C(=O)CCNC(=O)CCCCCNC(=O)[C@H](Cc6ccccc6)NC(=O)[C@H](Cc6ccccc6)NC(=O)[C@@H](N)CCCNC(=N)N)CC5)O[C@@H](n5ccc(N)nc5=O)C4)O[C@@H](n4cc(C)c(=O)[nH]c4=O)C3)O2)c(=O)[nH]c1=O` (stereo partly drawn), the MIC is > 80 µM. Regarding `Cc1cn([C@H]2CN(P(=O)(OC[C@@H]3CN(P(=O)(OC[C@@H]4CN(P(=O)(OC[C@@H]5CN(P(=O)(OC[C@@H]6CN(P(=O)(OC[C@@H]7CN(P(=O)(OC[C@@H]8CN(P(=O)(OC[C@@H]9CN(P(=O)(OC[C@@H]%10CNC[C@H](n%11cnc%12c(=O)[nH]c(N)nc%12%11)O%10)N(C)C)C[C@H](n%10cc(C)c(=O)[nH]c%10=O)O9)N(C)C)C[C@H](n9cnc%10c(=O)[nH]c(N)nc%109)O8)N(C)C)C[C@H](n8cnc9c(N)ncnc98)O7)N(C)C)C[C@H](n7cc(C)c(=O)[nH]c7=O)O6)N(C)C)C[C@H](n6cnc7c(N)ncnc76)O5)N(C)C)C[C@H](n5cnc6c(=O)[nH]c(N)nc65)O4)N(C)C)C[C@H](n4ccc(N)nc4=O)O3)N(C)C)C[C@@H](COP(=O)(N(C)C)N3C[C@@H](COP(=O)(N(C)C)N4C[C@@H](COP(=O)(N(C)C)N5CCN(C(=O)CCNC(=O)CCCCCNC(=O)[C@H](CCCNC(=N)N)NC(=O)[C@@H](NC(=O)[C@@H](NC(=O)[C@H](CCCNC(=N)N)NC(=O)[C@@H](NC(=O)[C@@H](NC(=O)[C@H](CCCNC(=N)N)NC(=O)[C@@H](NC(=O)[C@@H](NC(=O)[C@@H](N)CCCNC(=N)N)C(C)C)C(C)C)C(C)C)C(C)C)C(C)C)C(C)C)CC5)O[C@@H](n5ccc(N)nc5=O)C4)O[C@@H](n4cc(C)c(=O)[nH]c4=O)C3)O2)c(=O)[nH]c1=O` (stereo partly drawn), the MIC was > 80 µM.

`Cc1cn([C@H]2CN(P(=O)(OC[C@@H]3CN(P(=O)(OC[C@@H]4CN(P(=O)(OC[C@@H]5CN(P(=O)(OC[C@@H]6CN(P(=O)(OC[C@@H]7CN(P(=O)(OC[C@@H]8CN(P(=O)(OC[C@@H]9CN(P(=O)(OC[C@@H]%10CNC[C@H](n%11cnc%12c(=O)[nH]c(N)nc%12%11)O%10)N(C)C)C[C@H](n%10cc(C)c(=O)[nH]c%10=O)O9)N(C)C)C[C@H](n9cnc%10c(=O)[nH]c(N)nc%109)O8)N(C)C)C[C@H](n8cnc9c(N)ncnc98)O7)N(C)C)C[C@H](n7cc(C)c(=O)[nH]c7=O)O6)N(C)C)C[C@H](n6cnc7c(N)ncnc76)O5)N(C)C)C[C@H](n5cnc6c(=O)[nH]c(N)nc65)O4)N(C)C)C[C@H](n4ccc(N)nc4=O)O3)N(C)C)C[C@@H](COP(=O)(N(C)C)N3C[C@@H](COP(=O)(N(C)C)N4C[C@@H](COP(=O)(N(C)C)N5CCN(C(=O)CCNC(=O)CCCCCNC(=O)CCCCCNC(=O)[C@H](CCCNC(=N)N)NC(=O)CCCCCNC(=O)CCCCCNC(=O)[C@H](CCCNC(=N)N)NC(=O)CCCCCNC(=O)CCCCCNC(=O)[C@@H](N)CCCNC(=N)N)CC5)O[C@@H](n5ccc(N)nc5=O)C4)O[C@@H](n4cc(C)c(=O)[nH]c4=O)C3)O2)c(=O)[nH]c1=O` (stereo partly drawn) returned an MIC of 20 µM (≈ 100 µg/mL). This lies in the double-digit micromolar range.

The record behind these values is ChEMBL document CHEMBL1629608, “Variations in amino acid composition of antisense peptide-phosphorodiamidate morpholino oligomer affect potency against Escherichia coli in vitro and in vivo” (Antimicrob Agents Chemother, 2009).
